These results are taken from patent publication US20150283110A1, “COMPOSITION FOR PREVENTING OR TREATING HEART DISEASE” (AMOREPACIFIC CORPORATION, priority 2012, published 2015).

SMILES strings stand for the structures.

Assay [1] concerns SIRT1 gene. Briefly: SIRT1 gene expression promoting effect in cardiomyocytes (RT-PCR). The assay is classed as cell-based. The arrangement: change of the expression of the SIRT1 gene: dose or concentration left out as unconfirmed. The following applies: rat cardiomyocytes, FIG. 1; for change of the expression of the SIRT1 gene: serum-free, 24 hours, DMSO control. The procedure: The SIRT1 gene expression promoting effect of the two optical isomers of syringaresinol in rat cardiomyocytes was evaluated as follows.
The heart of a 1-2 day old Sprague-Dawley rat was excised, immersed in an HBSS solution, cut into pieces with scissors and kept overnight in a trypsin/EDTA solution inside a shaker at 4° C. The next day, the trypsin solution was discarded and a 10% FCS/DMEM solution was added to inhibit trypsin activity. After discarding the FCS/DMEM, adding a collagenase solution and keeping in a shaking bath at 37° C. for about 3 minutes, only the supernatant was collected in a conical tube. This procedure was repeated three times. After centrifuging the collected solution at 750 rpm for 5 minutes, the resulting pellets were resuspended in a 10% FCS/DMEM solution, transferred to a culture flask and then incubated at 37° C. for 75 minutes. The suspension was transferred to a fresh culture flask, incubated again for 75 minutes, transferred to a conical tube and then plated after cell counting. The plated cells were cultured in a 10% FCS/DMEM medium for 3-4 days until confluence and the medium was treated respectively with the (+)-syringaresinol (50 mM) obtained in Example and with the (−)-syringaresinol (50 mM) obtained in Comparative Example for 24 hours after removing the serum. The control group was treated with DMSO. The treated cells were washed 2 times with cold PBS and RNA was extracted therefrom using the TRIzol reagent (Invitrogen). cDNA was synthesized from the extracted and quantitated 1 μg/μL RNA using a reverse transcription system (Promega). The expression profile of the SIRT1 and GAPDH genes was measured using the synthesized cDNA and primers and probes predesigned for the genes (Applied Biosystems; SIRT1, Hs01009006_m1; GAPDH, Hs99999905_m1). PCR reaction and analysis were conducted using the Rotor-Gene 3000 system (Corbett Research, Sydney, Australia).

Assay [2] concerns cardiomyocytes. Kind of assay: Cardiomyocyte protection from cell death induced by reactive oxygen species (H2O2, MTT). Type of assay: cell-based, rat. The following applies: 250 mM H2O2 2 hours, then 5, 20 or 50 mM for 24 hours; MTT OD 540 nm; FIGS. 2 and 3. How it is done:
Cardiomyocytes isolated and cultured according to the substantially same method as described in Test Example 1 were treated with 250 mM hydrogen peroxide (H2O2) for 2 hours in a serum-free medium to induce cell death by reactive oxygen species. 2 hours later, after removing the medium and washing with PBS, the cells were treated with 5, 20 or 50 mM (+)-syringaresinol and (−)-syringaresinol for 24 hours. After adding a 3-[4,5-dimethylthiazolyl]-2,5-diphenyltetrazolium bromide (MTT, Sigma) solution to the cells and incubating at 37° C. for 4 hours, dimethyl sulfoxide was added and the optical density (OD) of the formed formazan dye was measured at a wavelength of 540 nm using an ELISA reader (Thermo Max, Molecular Devices Co.).

Assay [3] relates to SIRT1 gene. Briefly: SIRT1 expression in vascular endothelial cells during induced aging (RT-PCR). Type of assay: cell-based. The following applies: human vascular endothelial cells, 50 mM every other day, FIG. 8. The procedure:
Human vascular endothelial cells purchased from Lonza (Walkersville, Md., USA) were cultured using the endothelial cell growth medium EGM-2 SingleQuots (Lonza) in a 5% CO2 incubator until 70% confluence. […] The population doubling level (PDL) was calculated according to the following equation for each generation until the cell growth was stopped. The PDL value is higher in aged cells.
14 PDL cells were treated with syringaresinol obtained from ginseng berry [syn(GB)], synthesized (+)-syringaresinol [syn(+)], 1:1 [syn(+/−1:1)], 2:1 [syn(+/−2:1)], 5:1 [syn(syn(+/−5:1))] or 10:1 [syn(syn(+/−10:1))] mixture of synthesized (+)-syringaresinol and synthesized (−)-syringaresinol or syringaresinol obtained from eleuthero [syn(eleuthero)] at a concentration of 50 mM every other day while inducing aging to 40 PDL cells. The cells of a negative control group were treated with DMSO of 1/1000 of the volume of the medium. The cells treated with each sample were washed 2 times with cold PBS and RNA was extracted using the TRIzol reagent (Invitrogen). cDNA was synthesized from the extracted RNA (1 μg/μL) using a reverse transcription system (Promega). Subsequently, the expression profile of the SIRT1 and GAPDH genes was measured using the synthesized cDNA and primers and probes predesigned for the genes (Applied Biosystems; SIRT1, Hs01009006_m1; GAPDH, Hs99999905_m1). […]

As to `COc1cc(C2OCC3C(c4cc(OC)c(O)c(OC)c4)OCC23)cc(OC)c1O` (single isomer, unassigned; (-)) [(−)-syringaresinol, reference compound], in assay [1], the “change of the expression of the SIRT1 gene” value (from here on “change”) is reported as “cannot increase the expression of the SIRT1 gene”. Moreover, the “death of cardiomyocytes induced by reactive oxygen species” value in assay [2] is “promoted cell death”.
As to `COc1cc(C2OCC3C(c4cc(OC)c(O)c(OC)c4)OCC23)cc(OC)c1O` (centres unmarked) [syringaresinol obtained from ginseng berry], the “change” value in assay [1] is recorded as “increase the SIRT1 expression in cardiomyocyte in concentration-dependent manners”.
As for `COc1cc([C@H]2OC[C@H]3[C@@H]2CO[C@@H]3c2cc(OC)c(O)c(OC)c2)cc(OC)c1O` [(+)-syringaresinol, (8R,8′R)-(+)-syringaresinol], in assay [1], the “effect of increasing the SIRT1 expression compared with syringaresinol obtained from ginseng berry” value is recorded as “better effect of increasing the SIRT1 expression than the syringaresinol obtained from ginseng berry” and the “change” value is listed as “increase the SIRT1 expression in cardiomyocyte in concentration-dependent manners”. The “death of cardiomyocytes induced by reactive oxygen species” value in assay [2] is reported as “suppressed the death of the cardiomyocytes induced by the reactive oxygen species in a concentration-dependent manner”. Moreover, the “SIRT1 expression compared with cells treated with syringaresinol obtained from ginseng berry” value in assay [3] is given as “higher SIRT1 expression than the cells treated with the syringaresinol obtained from ginseng berry”. Further, in assay [3] (14 PDL to 40 PDL), the “SIRT1 expression as compared to the cells treated only with DMSO” value was no less than 4 times.
